Measured values: EP4608400B1, “COMPOUND FOR TREATMENT OF PAIN” (Initiator Pharma A/S, priority 2022, dated 2024)

System: CCI rats
Experiment: Rat chronic constriction injury (CCI) model of neuropathic pain
Format: in vivo, Sprague-Dawley rats
Conditions: for paw withdrawal duration (pin prick) / weight bearing difference / paw withdrawal threshold (von Frey stimulation): 60 min prior; for paw withdrawal duration (pin prick): vehicle about 14.9 s; for weight bearing difference: vehicle about 51 %; for paw withdrawal threshold (von Frey stimulation): vehicle around 1.1 g
Description: All treatments were administered s.c. in a dosing volume of 2 ml/kg 60 min prior to behavioural assessment.
Adult male Sprague-Dawley rats (Harlan Scandinavia, Alleroed, Denmark) were used. They were housed in Macrolon III cages (20 x 14 x 18 cm or 20 x 40 x18 cm; in groups of 2-5 per cage according to weight) containing wood-chip bedding material (3 x 1 x 4 mm). The environment was temperature (20 ± 2°C) and humidity (55 ± 15%) controlled and consisted of a light-dark cycle of 13:11 h (lights on at 06.00 h and off at 19.00 h). Food (Altromin®) and water were available ad libitum. The rats were allowed to habituate to the housing facilities for at least one week prior to being randomly assigned to behavioural experiments. All experiments were performed according to the Ethical Guidelines of the International Association for the Study of Pain (Zimmermann, 1983) and the Danish Committee for Experiments on Animals.
All drug testing in CCI rats was performed blinded by the observer. A 2-3 day drug washout period was allowed, and the studies were conducted between 4-5 weeks after surgery. CCI rats used in this study had also been previously enrolled in similar experiments assessing the efficacy of other compound(s). Only those animals with distinct neuropathic behavior (von Frey response <4 g, pin prick response >10 s) were included in the study. Table C: Experimental groups
Chronic constriction injury procedure. A chronic constriction injury (CCI) was performed in rats (body weight 180-220 g at the time of surgery) under isoflurane anaesthesia as described previously (Bennett and Xie, 1988). The sciatic nerve was exposed at the mid-thigh level proximal to the sciatic trifurcation. Four chromic gut ligatures (4/0) (Ethicon, New Brunswick, NJ) were tied loosely around the nerve, 1-2 mm apart, such that the vascular supply was not compromised. The overlying muscle was closed in layers with 4/0 synthetic absorbable surgical suture. The skin was closed and sutured with 4/0 silk thread.
Behavioural testing of nerve-injured rats. Nerve-injured rats were routinely tested for the presence of pain-like behaviours for up to 5 weeks after surgery, according to previously described methods (Munro et al., 2008). For testing of mechanical hypersensitivity individual rats were removed from their home cage and allowed to habituate for 15 min in a 15 x 20 cm white Plexiglas testing cage, placed upon an elevated metal grid allowing access to the plantar surface of the injured hindpaw. The presence of mechanical allodynia was assessed using a series of calibrated von Frey hairs (lower limit=0.065 and upper limit=19.3 g, Stoelting Co, Wood Dale IL), which were applied to the plantar surface of the hindpaw with increasing force until an individual filament used just started to bend. The filament was applied for a period of 1-2 s and was repeated 5 times at 1-2 s intervals. The filament that induced a reflex paw withdrawal in 3 out of 5 applications was considered to represent the threshold level for a response to occur. The presence of mechanical hyperalgesia was determined by pressing the plantar surface of the hindpaw with the point of a safety pin, at an intensity sufficient to produce a reflex withdrawal response in normal unoperated animals, but at an intensity which was insufficient to penetrate the skin. A cut-off time of 15 s was applied to long withdrawals often seen for the nerve-injured paw.
Changes in hindpaw weight bearing were assessed using an incapacitance tester (Linton Instrumentation, U.K.), which incorporates a dual channel scale used to separately assess the weight distributed to each hindpaw of the rat. Normally, uninjured rats distribute their weight evenly between the two hindpaws (50:50). However, after tissue injury the rat preferentially favours the non-injured hindpaw, such that the weight bearing difference can be used as an index of spontaneous nociception. […]

COc1cc2ccc(O[C@@H]3C[C@H]4CC[C@@H](C3)N4)cc2oc1=O [IP2015, exo-7-[(8-azabicyclo[3.2.1]octan-3-yl)oxy]-3-methoxy-chromen-2-one]
paw withdrawal duration (pin prick) (3 mg/kg s.c.): about 12.3 s
weight bearing difference (3 mg/kg s.c.): about 17%
paw withdrawal threshold (von Frey stimulation) (3 mg/kg s.c.): about 5.7 g
paw withdrawal duration (pin prick) (10 mg/kg s.c.): about 11.1 s
weight bearing difference (10 mg/kg s.c.): about 11%
paw withdrawal threshold (von Frey stimulation) (10 mg/kg s.c.): about 3.6 g
CCI induced weight bearing deficits (overall effect) (3, 10 mg/kg s.c., CCI rats): robust dose-dependent reversal
hindpaw withdrawal threshold to mechanical von Frey stimulation (overall effect) (3, 10 mg/kg s.c., CCI rats): small but significant increase
behavioural observation in CCI rats (10 and especially 30 mg/kg s.c.): extremely alert, and possibly displayed signs of anxiogenic behaviour
